Publication PMC4549708, “Inhibition of neuraminidase by Ganoderma triterpenoids and implications for neuraminidase inhibitor design” (Scientific Reports, 2015)
pIC50: −log10 of the molar value.

What was measured:
NA (H3N2, E119V) = format: biochemical, Influenza A virus A/Babol/36/2005(H3N2)(E119V); settings: 200 µM
H1N1 (A/HA-58pdm-TR) = assay: microbe, parasite or virus in culture; format: cell-based, oseltamivir-resistant strain; settings: Influenza A virus, H1N1, MDCK
NA (H1N1, N295S) = format: biochemical, Influenza A virus A/California/04/2009(H1N1)(N295S); settings: 200 µM

Compound | Inhibition rate (%) NA(H3N2, E119V) (NA (H3N2, E119V)) [%] | pIC50 (H1N1 (A/HA-58pdm-TR)) | Inhibition rate (%) NA(H1N1, N295S) (NA (H1N1, N295S)) [%]
CC(=O)O[C@H]1C[C@H]([C@H](C)CC/C=C(\C)C(=O)O)[C@@]2(C)CC=C3C(=CC[C@H]4C(C)(C)C(=O)CC[C@]34C)[C@]12C [Compound 1, Ganoderic acid T-Q] | 55.4 ± 4.1 | – | –
C/C(=C\CC[C@@H](C)[C@H]1C[C@H](O)[C@@]2(C)C3=CC[C@H]4C(C)(C)C(=O)CC[C@]4(C)C3=CC[C@]12C)C(=O)O [Compound 2, Ganoderic acid TR] | 59.2 ± 1.9 | 3.61 | –
CC(=O)O[C@H]1C[C@H]([C@H](C)CC/C=C(\C)C(=O)O)[C@@]2(C)CC=C3C(=CC[C@H]4C(C)(C)[C@@H](O)CC[C@]34C)[C@]12C [Compound 3, Ganoderic acid T-N] | 43.6 ± 1.2 | – | 27.5 ± 1.4
C/C(=C/CC[C@@H](C)[C@H]1CC[C@@]2(C)C3=CC[C@H]4C(C)(C)C(=O)CC[C@]4(C)C3=CC[C@]12C)C(=O)O [Compound 4, Ganoderic acid Sz] | 22.5 ± 0.3 | – | 29.3 ± 5.1
C/C(=C/CC[C@@H](C)[C@H]1CC[C@@]2(C)C3=CC[C@H]4C(C)(C)C(=O)CC[C@]4(C)C3=CC[C@]12C)C(=O)O [Compound 5, Ganoderic acid S] | 44.9 ± 3.2 | – | 34.1 ± 2.2
C/C(=C\CC[C@@H](C)[C@H]1CC[C@@]2(C)C3=CC[C@H]4C(C)(C)[C@@H](O)CC[C@]4(C)C3=CC[C@]12C)C(=O)O [Compound 6, Ganoderic acid Y] | 23.2 ± 3.4 | – | 16.9 ± 2.8
C[C@H](CC(=O)C[C@@H](C)[C@H]1C[C@H](O)[C@@]2(C)C3=C(C(=O)C[C@]12C)[C@@]1(C)CCC(=O)C(C)(C)[C@@H]1C[C@@H]3O)C(=O)O [Compound 7, Ganoderic acid A] | 32.1 ± 2.7 | – | 15.3 ± 1.8
C/C(=C\C(=O)CC(C)C(=O)O)[C@H]1C[C@H](O)[C@@]2(C)C3=C(C(=O)C[C@]12C)[C@@]1(C)CCC(=O)C(C)(C)[C@@H]1C[C@@H]3O (stereo partly shown) [Compound 8, Ganoderenic acid A] | 29.1 ± 2.3 | – | 12.4 ± 1.8
C[C@H](CC(=O)C[C@@H](C)[C@H]1C[C@H](O)[C@@]2(C)C3=C(C(=O)C[C@]12C)[C@@]1(C)CC[C@H](O)C(C)(C)[C@@H]1C[C@@H]3O)C(=O)O [Compound 9, Ganoderic acid C2] | 45.4 ± 1.1 | – | 13.7 ± 2.4
CC(CC(=O)C[C@@H](C)[C@H]1CC(=O)[C@@]2(C)C3=C(C(=O)C[C@]12C)[C@@]1(C)CC[C@H](O)C(C)(C)[C@@H]1CC3=O)C(=O)O (stereo partly shown) [Compound 10, Ganoderic acid AM1] | 31.3 ± 3.2 | – | 9.3 ± 1.6
CC(=O)O[C@@H]1C(=O)C2=C([C@@H](O)C[C@H]3C(C)(C)[C@@H](O)CC[C@]23C)[C@]2(C)C(=O)C[C@H]([C@H](C)CC(=O)CC(C)C(=O)O)[C@@]12C (stereo partly shown) [Compound 11, Ganoderic acid K] | 33.5 ± 2.4 | – | 14.2 ± 2.9
C/C(=C\C(=O)CC(C)C(=O)O)[C@H]1CC(=O)[C@@]2(C)C3=C(C(=O)C[C@]12C)[C@@]1(C)CC[C@H](O)C(C)(C)[C@@H]1CC3=O (stereo partly shown) [Compound 12, Ganoderenic acid H] | 38.6 ± 2.3 | – | 12.8 ± 5.1
CC(=O)O[C@@H]1C(=O)C2=C(C(=O)C[C@H]3C(C)(C)[C@@H](O)CC[C@]23C)[C@]2(C)C(=O)C[C@H]([C@H](C)CC(=O)CC(C)C(=O)O)[C@@]12C (stereo partly shown) [Compound 13, Ganoderic acid H] | 27.9 ± 1.5 | – | 16.9 ± 2.4
CC(CC(=O)C[C@@H](C)[C@H]1CC(=O)[C@@]2(C)C3=C(C(=O)C[C@]12C)[C@@]1(C)CC[C@H](O)C(C)(C)[C@@H]1C[C@@H]3O)C(=O)O (stereo partly shown) [Compound 14, Ganoderic acid B] | 38.7 ± 1.6 | – | 12.8 ± 1.4
C/C(=C\C(=O)CC(C)C(=O)O)[C@H]1CC(=O)[C@@]2(C)C3=C(C(=O)C[C@]12C)[C@@]1(C)CCC(=O)C(C)(C)[C@@H]1CC3=O (stereo partly shown) [Compound 15, Ganoderenic acid F] | 24.2 ± 3.9 | – | 24.4 ± 4.4
C/C(=C\C(=O)CC(C)C(=O)O)C1CC(O)C2(C)C3=C(C(=O)CC12C)C1(C)CCC(O)C(C)(C)C1CC3O (stereo not shown) [Compound 16, Ganoderenic acid C] | 37.5 ± 2.4 | – | 13.2 ± 2.2

Compound | Inhibition rate (%) NA(H3N2, E119V) (NA (H3N2, E119V)) [%] | pIC50 (H1N1 (A/HA-58pdm-TR)) | Inhibition rate (%) NA(H1N1, N295S) (NA (H1N1, N295S)) [%]
CC(CC(=O)C[C@@H](C)[C@H]1CC(=O)[C@@]2(C)C3=C(C(=O)[C@@H](O)[C@]12C)[C@@]1(C)CC[C@H](O)C(C)(C)[C@@H]1CC3=O)C(=O)O (stereo partly shown) [Compound 18, Ganoderic acid C6] | 20.7 ± 0.5 | – | 17.6 ± 3.5
C[C@H](CC(=O)C[C@@H](C)[C@H]1CC(=O)[C@@]2(C)C3=C(C(=O)C[C@]12C)[C@@]1(C)CCC(=O)C(C)(C)[C@@H]1C[C@@H]3O)C(=O)O [Compound 19, Ganoderic acid C1] | 32.0 ± 3.4 | – | 14.7 ± 3.9
C/C(=C\CC[C@@H](C)[C@H]1CC[C@@]2(C)C3=C(CC[C@]12C)[C@@]1(C)CCC(=O)C(C)(C)[C@@H]1CC3=O)C(=O)O [Compound 20, Ganoderic acid DM] | 28.8 ± 0.5 | – | 19.0 ± 2.4
CC(CC(=O)C[C@@H](C)[C@H]1C[C@H](O)[C@@]2(C)C3=C(C(=O)C[C@]12C)[C@@]1(C)CCC(=O)C(C)(C)[C@@H]1CC3)C(=O)O (stereo partly shown) [Compound 21, Ganolucidic acid A] | 22.9 ± 3.8 | – | 21.0 ± 4.2
C/C(=C\[C@@H](O)C[C@@H](C)[C@H]1CC(=O)[C@@]2(C)C3=C(C(=O)C[C@]12C)[C@@]1(C)CC[C@H](O)C(C)(C)[C@@H]1CC3=O)C(=O)O [Compound 22, Ganoderic acid Zeta] | 18.7 ± 4.5 | – | 25.5 ± 4.9
C/C(=C\[C@@H](O)C[C@@H](C)[C@H]1CC(=O)[C@@]2(C)C3=C(C(=O)C[C@]12C)[C@@]1(C)CCC(=O)C(C)(C)[C@@H]1C[C@@H]3O)C(=O)O [Compound 23, Ganoderic acid LM2] | 12.9 ± 1.0 | – | 15.4 ± 0.6
CC(=O)O[C@@H]1C(=O)C2=C(C(=O)C[C@H]3C(C)(C)C(=O)CC[C@]23C)[C@]2(C)C(=O)C[C@H]([C@H](C)CC(=O)CC(C)C(=O)O)[C@@]12C (stereo partly shown) [Compound 24, Ganoderic acid F] | 19.9 ± 2.6 | – | 17.6 ± 2.0
C/C(=C\CC[C@@H](C)[C@H]1CC[C@@]2(C)C3=CC[C@H]4C(C)(C)C(=O)CC[C@]4(C)C3=CC[C@]12C)CO [Compound 25, Ganoderol A] | 18.2 ± 2.7 | – | 22.6 ± 1.8
C/C(=C\CC[C@@H](C)[C@H]1CC[C@@]2(C)C3=CC[C@H]4C(C)(C)[C@@H](O)CC[C@]4(C)C3=CC[C@]12C)CO [Compound 26, Ganoderol B] | 19.1 ± 6.1 | – | 19.9 ± 1.1
C[C@H](CCC=C(CO)CO)[C@H]1CC[C@@]2(C)C3=CC[C@H]4C(C)(C)C(=O)CC[C@]4(C)C3=CC[C@]12C [Compound 27, Ganoderiol F] | 16.8 ± 1.2 | – | 9.5 ± 4.5
C[C@H](CC[C@H](O)C(C)(C)O)[C@H]1CC[C@@]2(C)C3=CC[C@H]4C(C)(C)C(=O)CC[C@]4(C)C3=CC[C@]12C [Compound 28, Ganodermanondiol] | 34.2 ± 0.9 | – | 19.0 ± 4.2
C[C@H](CC[C@H](O)[C@](C)(O)CO)[C@H]1CC[C@@]2(C)C3=CC[C@H]4C(C)(C)C(=O)CC[C@]4(C)C3=CC[C@]12C [Compound 29, Ganodermanontriol] | 12.2 ± 3.4 | – | 7.9 ± 3.2
C/C(C=O)=C\CC[C@@H](C)[C@H]1CC[C@@]2(C)C3=CC[C@H]4C(C)(C)[C@@H](O)CC[C@]4(C)C3=CC[C@]12C [Compound 30, Lucialdehyde A] | 25.9 ± 8.1 | – | 5.8 ± 2.4
C/C(C=O)=C\CC[C@@H](C)[C@H]1CC[C@@]2(C)C3=C(CC[C@]12C)[C@@]1(C)CCC(=O)C(C)(C)[C@@H]1CC3=O [Compound 31, Lucialdehyde B] | 43.3 ± 1.0 | – | 11.2 ± 1.3
Ganoderenic acid D [Compound 17] | 32.2 ± 3.4 | – | 13.8 ± 3.1
